Legend:
[1] = target: T1, human C3a receptor (Homo sapiens, UniProt Q16581); assay: Ca2+-flux assay in HEK293 cells expressing human C3a receptor and GNA16; format: cell-based; settings: ligands mouse TLQP-21 1 μM or human C3a recombinant protein 300 nM, Fluo-4, HEK293, FIG. 1
T1 construct: host or cells: HEK293
T1 sequence (Q16581 1-482): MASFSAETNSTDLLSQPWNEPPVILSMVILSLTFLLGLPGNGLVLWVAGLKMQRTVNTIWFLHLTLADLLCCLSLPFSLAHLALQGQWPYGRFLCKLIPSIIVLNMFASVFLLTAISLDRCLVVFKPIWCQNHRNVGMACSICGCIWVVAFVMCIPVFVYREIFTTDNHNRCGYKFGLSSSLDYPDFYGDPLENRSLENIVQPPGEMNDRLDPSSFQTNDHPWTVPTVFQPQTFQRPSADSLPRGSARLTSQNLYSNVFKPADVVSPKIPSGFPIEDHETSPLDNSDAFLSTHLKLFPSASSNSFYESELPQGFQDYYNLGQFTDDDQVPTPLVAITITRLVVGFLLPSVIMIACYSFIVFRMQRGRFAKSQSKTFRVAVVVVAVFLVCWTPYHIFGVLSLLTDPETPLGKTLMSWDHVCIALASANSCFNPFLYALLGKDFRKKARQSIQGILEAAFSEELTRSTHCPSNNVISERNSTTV
Source text: Mouse TLQP-21 (Tocris Bioscience, sequence: TLOPPASSRRRHFHHALPPAR, the same applies hereinafter) and human C3a recombinant protein (R&D systems) were used. The solvent was HBSS (Gibco).
The compound 1 (L-arginine, N2-[[5-(diphenylmethyl)-2-thienyl]carbonyl]) synthesized in accordance with a previous report (Rowley, J. A. et al. Journal of Medicinal Chemistry, 2020; 63 (2): 529-541) and ozanimod (Cayman Chemical) were used as C3a receptor antagonists. In the following evaluation, the compound 1 and ozanimod were dissolved in DMSO and diluted with HBSS as appropriate.
Human Embryonic Kidney cells 293 (HEK293) were used, into which the expression vectors necessary for evaluation were introduced according to the following. […]
The cells for evaluating C3a receptor response described above were seeded in a BioCoat (Registered Trademark) Poly-D-Lysine 96-well Black Flat Bottom Microplate (CORNING). […] After 15 minutes, C3a receptor ligand solution (mouse TLQP-21 solution or human C3a recombinant protein solution) was added for C3a receptor stimulation, and the Ca^2+ influx associated with the stimulation was measured over time as intracellular fluorescence intensity (Ex: 480 nm, Em: 540 nm). The value obtained by subtracting the measured value when HBSS was added instead of the C3a receptor ligand solution (blank) was used as the measured value. […]

[2] = tested on: AD model mice (NC/Nga); assay: Amelioration of pruritus in AD model mice by C3a receptor antagonist (mite allergen ointment-induced); format: in vivo, mouse; settings: 0.5 mg/mL, 200 μL subcutaneously, three times a week; measured for 3 hours after last administration; FIG. 7
Method: Seven-week-old female NC/Nga mice were used. Preparation of AD model mice: The back of the neck was shaved, and 100 mg of an ointment containing mite allergen: Biostir AD (Biostir Inc.) was applied to the back of the neck and auricular region under isoflurane anesthesia for initial sensitization. Four days after the first application of the ointment containing mite allergen, 150 μL of 4% (w/v) SDS solution and 100 mg of ointment containing mite allergen were applied to the back of the neck and auricular region under isoflurane anesthesia. Thereafter, the same procedure was performed four times at a frequency of once every 3 to 4 days to induce AD-like dermatitis.
The compound 1, whose C3a receptor antagonism was confirmed in Example 1 above, was used as a C3a receptor antagonist. The compound 1 was dissolved in saline containing 20% polyethylene glycol 400, of which 200 μL was administered subcutaneously to the back of the neck. The control group was administered the same amount of only the above solvent. The concentration of the C3a receptor antagonist solution was set at 0.5 mg/mL. […]
Four days after the last application of the ointment containing mite allergen, the scratching behavior was measured for 3 hours after the last administration of the sample. […]

[3] = tested on: AEW model mice (C57BL/6J); assay: Amelioration of pruritus in AEW model mice by C3a receptor antagonist; format: in vivo, mouse; settings: 0.5 mg/mL, 200 μL subcutaneously, once daily for 8 days; measured for 3 hours after last administration; FIG. 8
Source text: The animals used were male C57BL/6J mice. Preparation of AEW model: The back of the neck was shaved, and absorbent cotton soaked with a 1:1 (v/v) mixture of acetone and diethyl ether was applied and allowed to stand for 15 seconds. Immediately thereafter, absorbent cotton soaked with water was applied for 30 seconds. This treatment was repeated twice/day (morning and evening) for 7 days.
The compound 1, whose C3a receptor antagonism was confirmed in Example 1 above, was used as a C3a receptor antagonist. The compound 1 was dissolved in saline containing 20% polyethylene glycol 400, of which 200 μL was administered subcutaneously to the back of the neck. The control group was administered the same amount of only the above solvent. The concentration of the C3a receptor antagonist solution was set at 0.5 mg/mL. Sample administration started after the first AEW treatment and was performed at a frequency of once daily for 8 days.
Sixteen hours after the last AEW treatment, the scratching behavior was measured for 3 hours after the last administration of the sample. MicroAct (Neuroscience) was used to measure the scratching behavior.

[4] = tested on: AD model mice (NC/Nga); assay: Amelioration of pruritus in AD model mice by ozanimod (fur mite-parasitized NC/Nga); format: in vivo, mouse; settings: oral, 3 mg/mL suspension at 10 ml/kg; measurement time 22 hours; FIG. 9
Method: NC/Nga mice were parasitized with mouse fur mites (M. musculi) to spontaneously generate dermatitis, and were used as an AD model. Fourteen-week-old males having developed dermatitis were used. After one week of acclimation, the back of their necks was shaved and their scratching behavior was measured. The mice were divided into two groups of eight mice each to ensure an equal number of scratching behaviors.
(§1) Ozanimod (Selleck Biotech) was used. Carboxymethyl cellulose (Maruishi Pharmaceutical Co., Ltd.) prepared at 0.5% with water for injection was used as a solvent. The weighed ozanimod was lightly crushed using an agate pestle, and then the solvent dropwise addition and mixing were repeated to obtain a suspension (3 mg/mL). The preparation was done on the day of administration and stored at room temperature until administration.
The dosage (10 ml/kg) was calculated by measuring body weight, and the prepared evaluation samples were administered orally with an oral gavage needle for mice and a disposable syringe.
(§2) MicroAct (Neuroscience) was used to measure the scratching behavior. […] Measurements were made on the day before (before administration) and on the day of administration (after administration) of ozanimod, and the antipruritic effect of ozanimod was evaluated by comparing the number of scratching behaviors before and after administration.

[5] = tested on: ANIT model mice (C57BL/6J); assay: Amelioration of pruritus in model mice of pruritus associated with cholestasis (ANIT model) by ozanimod; format: in vivo, mouse; settings: oral, 3 mg/mL suspension at 10 mL/kg; measurement time 22 hours; FIG. 10
Method: Shaved male C57BL/6J mice were used. To eight-week-old C57BL/6J mice, α-naphthyl isothiocyanate (ANIT) dissolved in olive oil (FUJIFILM Wako Pure Chemical) was orally administered once daily for 10 days with an oral gavage needle for mice and a disposable syringe. Before administration, body weight was measured to ensure administration at 25 mg/10 mL/kg (ANIT model).
as §1
The dosage (10 mL/kg) was calculated by measuring body weight, and the prepared evaluation samples were administered orally with an oral gavage needle for mice and a disposable syringe.
as §2

Structure (SMILES)	fluorescence intensity due to C3a receptor stimulation by C3a receptor ligands (integrated value vs control = 100%) ([1]; compound at 1 μM)	scratching behavior compared to AD model mice administered with solvent alone [2]	scratching behavior compared to AEW model mice administered with solvent alone [3]	fluorescence intensity due to C3a receptor stimulation by C3a receptor ligands (integrated value vs control = 100%) ([1]; compound at 10 μM)	scratching behavior (events) after vs before administration [4]	scratching behavior (events) after vs before administration [5]
N=C(N)NCCC[C@H](NC(=O)c1ccc(C(c2ccccc2)c2ccccc2)s1)C(=O)O [compound 1, L-arginine, N2-[[5-(diphenylmethyl)-2-thienyl]carbonyl]]	suppressed	significant decrease	significant decrease	–	–	–
CC(C)Oc1ccc(-c2nc(-c3cccc4c3CCC4NCCO)no2)cc1C#N (stereo not drawn) [ozanimod, 5-[3-[1-(2-hydroxyethylamino)-2,3-dihydro-1H-inden-4-yl]-1,2,4-oxadiazol-5-yl]-2-isopropoxybenzonitrile]	–	–	–	suppressed	significant decrease	significant decrease

Source: patent US20260199296A1, “AGENT FOR PREVENTING OR AMELIORATING ITCH” (KAO CORPORATION, priority 2022, published 2026)
